From paper PMC9234961 (Journal of Medicinal Chemistry, 2022)
pEC50, pIC50: −log10 of the molar value. Several values for one entry are separate records, joined by “and”; a condition that tells them apart may be missing. Equal values may be shown once. Read-outs that look alike come from different tables or passages of the source.

Tests used:
[1] = Microsomal clearance assay (RLM); assay type: in vitro ADME; settings: rat liver microsomes, 1 μM compound
Procedure: 6. Supplementary experimental: in vitro DMPK assays
6.1 Microsomal clearance assay
Microsomal clearance was determined in female CD1 mice, female Sprague–Dawley rats, and mixed gender human liver microsomes obtained from BioIVT (Peterborough, U.K.) following incubation of 1 μM compound at 37 °C in 0.5 mg/mL microsomal protein, 3 mmol/L MgCl2, 1 mmol/L NADPH, 2.5 mmol/L and 10 mmol/L phosphate buffer (pH 7.4) (all purchased from Sigma-Aldrich, Gillingham, U.K). Reactions were started by addition of the cofactors following 10 min preincubation of microsomes with test compound and were terminated at −1, 0, 5, 10, 15, and 30 min with three volumes of ice-cold methanol containing internal standard. Samples were centrifuged at 2800g for 30 min at 4 °C and the supernatants analyzed.
Control incubations were prepared as above with omission of cofactors. Compound measurements were […]
separation with a 3 min gradient of 0.1% formic acid in methanol on a Kinetex C18, 50 × 2.1 mm 2.6 μm UPLC column (Phenomenex, Macclesfield, UK). […]

[2] = molecular target: BCL6 in OCI-Ly1 DLBCL xenograft (Homo sapiens, UniProt P41182); settings: single dose 50 mg/kg po
Procedure: weighed and dosing volumes adjusted accordingly.
7.3.2 Preparation of OCI-Ly1 xenograft model in mouse
Twenty days post injection 24 tumour-bearing mice (between 0.4 and 0.6 cm3) were selected for the study
Mice were then grouped n=3 for the following time points: 12, 16 & 24 hours
Compounds and vehicle were administered po (formulated as described in Supplementary experimental
single treatment of vehicle.
Blood (~1 mL) was taken from anaesthetized mice, via intracardiac puncture, using a 27 gauge needle and
a syringe pre-coated with heparin (200 Units/mL), The heparinized blood was microcentrifuged for 2
minutes and ~200 uL of plasma was aspirated to a labelled tube, frozen on dry-ice and dedicated to
pharmacokinetic analysis (PK). Each tumour was excised, divided into two halves, weighed and then snap
frozen in liquid nitrogen, dedicating one half to PK analysis and the other half to pharmacodynamic analysis (PD). All frozen material was permanently stored in a -80°C freezer.
7.3.6 Tumour lysis and Wes method
Tumours were lysed in lysis buffer (50 mM Tris-HCl, pH 7.4, 150 mM NaCl, 1% Triton X-100 (v/v), 1 mM PMSF, 1 mM activated sodium vanandate, 1 mM EDTA, phosphatase inhibitors 2 and 3 (1:50m dilution) and protease cocktail (1:100 dilution)) using reinforced homogenizing tubes containing metal beads using a Precellys 24 with cryolys cooling at 6000 rpm, 2 × 20 s (Stretton Scientific). Lysates were incubated on ice for 15 minutes, spun at 14000 rpm at 4 °C for 10 minutes and supernatants collected and aliquoted.
Samples were stored at -80 °C until use. Protein concentration was determined by diluting 1:10 with lysis buffer and measuring on Direct Detect® spectrometer according to manufacturer’s instructions.
according to manufacturer’s instructions (ProteinSimple) with multiplexing BCL6 (CST14895 at 1:150
Data was analysed using Compass for SW software. BCL6 data was normalised to GAPDH and transferred to GraphPad Prism 7.

[3] = molecular target: endogenous BCL6 in OCI-Ly1 cells (Homo sapiens, UniProt P41182); test: cell-based
VEGFR2 = VEGFR2 (Homo sapiens, UniProt P35968); test: SAFETYScan Kinases Binding, Inhibitor
Chain of VEGFR2 (P35968 20-1356, species assumed): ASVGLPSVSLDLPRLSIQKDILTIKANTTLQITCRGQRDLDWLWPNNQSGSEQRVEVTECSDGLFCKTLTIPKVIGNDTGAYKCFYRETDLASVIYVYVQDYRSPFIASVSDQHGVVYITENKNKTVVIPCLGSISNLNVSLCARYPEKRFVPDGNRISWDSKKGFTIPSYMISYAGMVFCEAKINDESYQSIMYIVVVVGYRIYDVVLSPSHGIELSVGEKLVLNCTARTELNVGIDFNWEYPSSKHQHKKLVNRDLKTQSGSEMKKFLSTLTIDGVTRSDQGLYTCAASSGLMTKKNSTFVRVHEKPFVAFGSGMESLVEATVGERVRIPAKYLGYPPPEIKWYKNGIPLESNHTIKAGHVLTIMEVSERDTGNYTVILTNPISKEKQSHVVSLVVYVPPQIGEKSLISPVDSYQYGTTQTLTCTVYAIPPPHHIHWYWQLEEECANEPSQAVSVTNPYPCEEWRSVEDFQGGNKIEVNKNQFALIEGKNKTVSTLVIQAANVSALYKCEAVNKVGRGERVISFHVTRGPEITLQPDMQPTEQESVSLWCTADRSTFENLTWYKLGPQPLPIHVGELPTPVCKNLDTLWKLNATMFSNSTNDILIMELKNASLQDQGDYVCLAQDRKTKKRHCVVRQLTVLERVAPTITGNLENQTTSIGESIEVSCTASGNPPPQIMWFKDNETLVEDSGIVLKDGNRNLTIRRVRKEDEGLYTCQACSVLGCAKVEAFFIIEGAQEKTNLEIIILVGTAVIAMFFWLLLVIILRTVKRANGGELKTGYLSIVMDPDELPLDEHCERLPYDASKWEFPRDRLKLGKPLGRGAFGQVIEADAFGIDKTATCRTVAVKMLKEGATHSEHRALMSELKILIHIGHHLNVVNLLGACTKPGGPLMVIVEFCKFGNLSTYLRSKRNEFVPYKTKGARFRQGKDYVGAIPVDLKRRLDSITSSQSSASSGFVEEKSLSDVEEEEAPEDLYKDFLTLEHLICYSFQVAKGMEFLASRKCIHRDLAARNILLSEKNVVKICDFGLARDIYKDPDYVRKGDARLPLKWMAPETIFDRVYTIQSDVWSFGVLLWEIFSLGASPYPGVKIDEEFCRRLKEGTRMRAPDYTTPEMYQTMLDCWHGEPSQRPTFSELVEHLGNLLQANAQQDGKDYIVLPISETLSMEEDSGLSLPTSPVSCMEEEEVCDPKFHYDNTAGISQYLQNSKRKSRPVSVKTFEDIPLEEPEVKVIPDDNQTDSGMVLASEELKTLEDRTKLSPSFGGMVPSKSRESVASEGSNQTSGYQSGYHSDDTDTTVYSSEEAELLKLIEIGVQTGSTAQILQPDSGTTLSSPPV
Source text: (§1) Supplement jm1c02175_si_002.xlsx, sheet "SAFETYScan" | column: RC50 (uM); Max Response

INSR = INSR (Homo sapiens, UniProt P06213); test: SAFETYScan Kinases Binding, Inhibitor
Chain of INSR (P06213 28-1382, species assumed): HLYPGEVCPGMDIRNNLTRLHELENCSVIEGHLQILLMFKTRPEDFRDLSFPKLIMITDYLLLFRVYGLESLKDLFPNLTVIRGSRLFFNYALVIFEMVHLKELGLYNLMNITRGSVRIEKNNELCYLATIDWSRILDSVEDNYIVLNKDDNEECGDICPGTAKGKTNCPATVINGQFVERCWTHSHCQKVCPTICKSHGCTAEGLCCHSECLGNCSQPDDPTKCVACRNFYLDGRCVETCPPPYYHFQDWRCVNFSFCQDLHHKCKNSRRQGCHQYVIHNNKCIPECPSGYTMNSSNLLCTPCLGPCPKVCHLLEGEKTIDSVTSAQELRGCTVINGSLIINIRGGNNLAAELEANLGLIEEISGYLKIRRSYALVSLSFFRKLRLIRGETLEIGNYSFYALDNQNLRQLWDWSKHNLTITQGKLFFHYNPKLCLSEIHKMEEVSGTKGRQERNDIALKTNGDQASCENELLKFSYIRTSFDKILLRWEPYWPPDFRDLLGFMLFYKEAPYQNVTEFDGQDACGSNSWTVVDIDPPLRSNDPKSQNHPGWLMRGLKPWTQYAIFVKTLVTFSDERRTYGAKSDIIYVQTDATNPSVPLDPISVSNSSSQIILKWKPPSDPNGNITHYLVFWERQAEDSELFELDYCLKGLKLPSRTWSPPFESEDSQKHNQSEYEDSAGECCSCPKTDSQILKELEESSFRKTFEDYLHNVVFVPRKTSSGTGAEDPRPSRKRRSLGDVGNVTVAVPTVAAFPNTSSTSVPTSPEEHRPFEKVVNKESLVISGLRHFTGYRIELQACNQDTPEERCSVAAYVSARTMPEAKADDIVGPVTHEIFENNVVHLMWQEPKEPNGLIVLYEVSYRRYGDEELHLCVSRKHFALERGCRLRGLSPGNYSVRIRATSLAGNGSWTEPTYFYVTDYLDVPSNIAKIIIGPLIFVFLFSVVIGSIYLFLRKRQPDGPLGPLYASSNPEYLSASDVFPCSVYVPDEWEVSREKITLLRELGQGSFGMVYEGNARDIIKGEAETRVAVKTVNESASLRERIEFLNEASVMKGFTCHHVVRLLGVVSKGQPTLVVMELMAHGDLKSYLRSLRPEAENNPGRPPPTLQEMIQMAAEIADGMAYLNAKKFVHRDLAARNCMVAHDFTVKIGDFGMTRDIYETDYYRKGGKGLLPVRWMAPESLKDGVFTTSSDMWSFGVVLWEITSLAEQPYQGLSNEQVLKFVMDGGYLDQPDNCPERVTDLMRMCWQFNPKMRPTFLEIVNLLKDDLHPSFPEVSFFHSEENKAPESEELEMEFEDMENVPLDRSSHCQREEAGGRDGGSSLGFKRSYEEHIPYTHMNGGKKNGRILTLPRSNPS
Source text: as §1

ROCK1 = ROCK1 (Homo sapiens, UniProt Q13464); test: SAFETYScan Kinases Binding, Inhibitor
Chain of ROCK1 (Q13464 whole entry, species assumed): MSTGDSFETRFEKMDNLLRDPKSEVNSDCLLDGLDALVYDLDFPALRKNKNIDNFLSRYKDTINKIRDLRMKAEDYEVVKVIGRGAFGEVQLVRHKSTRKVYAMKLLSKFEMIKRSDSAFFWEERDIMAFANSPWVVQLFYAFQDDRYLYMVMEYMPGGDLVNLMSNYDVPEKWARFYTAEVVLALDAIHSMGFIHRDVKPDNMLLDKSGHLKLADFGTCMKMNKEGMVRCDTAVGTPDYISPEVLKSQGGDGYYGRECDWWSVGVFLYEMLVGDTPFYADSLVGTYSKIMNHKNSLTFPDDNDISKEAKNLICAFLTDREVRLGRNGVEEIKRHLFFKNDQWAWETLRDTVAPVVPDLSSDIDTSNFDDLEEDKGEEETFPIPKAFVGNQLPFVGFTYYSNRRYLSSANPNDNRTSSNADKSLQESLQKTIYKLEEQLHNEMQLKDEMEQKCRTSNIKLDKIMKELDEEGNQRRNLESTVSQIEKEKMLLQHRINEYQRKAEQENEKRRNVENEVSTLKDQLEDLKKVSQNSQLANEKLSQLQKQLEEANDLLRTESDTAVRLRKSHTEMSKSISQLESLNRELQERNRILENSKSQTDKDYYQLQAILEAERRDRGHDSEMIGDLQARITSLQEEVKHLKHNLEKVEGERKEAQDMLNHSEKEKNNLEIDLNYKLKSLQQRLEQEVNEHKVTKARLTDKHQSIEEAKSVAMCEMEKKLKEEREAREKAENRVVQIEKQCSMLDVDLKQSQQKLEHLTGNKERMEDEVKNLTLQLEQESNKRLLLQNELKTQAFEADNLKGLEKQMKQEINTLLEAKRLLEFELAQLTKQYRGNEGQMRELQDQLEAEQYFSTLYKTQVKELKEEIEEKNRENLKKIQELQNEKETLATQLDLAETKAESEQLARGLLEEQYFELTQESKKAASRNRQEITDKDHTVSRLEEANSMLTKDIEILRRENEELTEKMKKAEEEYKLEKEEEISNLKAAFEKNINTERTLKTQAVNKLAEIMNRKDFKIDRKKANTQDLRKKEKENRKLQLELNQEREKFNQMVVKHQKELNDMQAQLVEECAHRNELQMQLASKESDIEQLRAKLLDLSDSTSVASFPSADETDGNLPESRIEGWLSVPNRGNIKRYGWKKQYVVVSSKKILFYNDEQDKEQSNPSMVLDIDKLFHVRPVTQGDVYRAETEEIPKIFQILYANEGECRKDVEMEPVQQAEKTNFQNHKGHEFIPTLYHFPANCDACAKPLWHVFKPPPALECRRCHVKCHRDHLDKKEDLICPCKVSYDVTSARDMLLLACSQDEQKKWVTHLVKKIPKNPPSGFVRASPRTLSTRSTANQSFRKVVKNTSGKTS
Source text: as §1

LCK = LCK (Homo sapiens, UniProt P06239); test: SAFETYScan Kinases Binding, Inhibitor
Chain of LCK (P06239 whole entry, species assumed): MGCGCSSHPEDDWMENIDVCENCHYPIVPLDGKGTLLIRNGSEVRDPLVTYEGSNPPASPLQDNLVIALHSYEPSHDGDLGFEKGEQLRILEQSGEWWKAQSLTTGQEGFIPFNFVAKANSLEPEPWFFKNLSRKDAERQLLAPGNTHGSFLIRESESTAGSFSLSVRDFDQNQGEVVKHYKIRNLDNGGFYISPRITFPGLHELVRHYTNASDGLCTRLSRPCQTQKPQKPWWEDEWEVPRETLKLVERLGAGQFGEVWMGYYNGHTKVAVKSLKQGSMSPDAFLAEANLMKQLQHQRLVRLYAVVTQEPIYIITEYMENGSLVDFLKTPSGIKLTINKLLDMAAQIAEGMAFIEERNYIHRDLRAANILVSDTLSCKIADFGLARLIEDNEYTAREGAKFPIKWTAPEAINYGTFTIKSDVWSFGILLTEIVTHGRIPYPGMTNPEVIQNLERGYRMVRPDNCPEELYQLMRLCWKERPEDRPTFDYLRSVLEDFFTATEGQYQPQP
Source text: as §1

GR = molecular target: T1, GR (Homo sapiens, UniProt P04150); test: SAFETYScan NHR Protein Interaction, Agonist; assay type: cell-based
T1 sequence (P04150 1-777): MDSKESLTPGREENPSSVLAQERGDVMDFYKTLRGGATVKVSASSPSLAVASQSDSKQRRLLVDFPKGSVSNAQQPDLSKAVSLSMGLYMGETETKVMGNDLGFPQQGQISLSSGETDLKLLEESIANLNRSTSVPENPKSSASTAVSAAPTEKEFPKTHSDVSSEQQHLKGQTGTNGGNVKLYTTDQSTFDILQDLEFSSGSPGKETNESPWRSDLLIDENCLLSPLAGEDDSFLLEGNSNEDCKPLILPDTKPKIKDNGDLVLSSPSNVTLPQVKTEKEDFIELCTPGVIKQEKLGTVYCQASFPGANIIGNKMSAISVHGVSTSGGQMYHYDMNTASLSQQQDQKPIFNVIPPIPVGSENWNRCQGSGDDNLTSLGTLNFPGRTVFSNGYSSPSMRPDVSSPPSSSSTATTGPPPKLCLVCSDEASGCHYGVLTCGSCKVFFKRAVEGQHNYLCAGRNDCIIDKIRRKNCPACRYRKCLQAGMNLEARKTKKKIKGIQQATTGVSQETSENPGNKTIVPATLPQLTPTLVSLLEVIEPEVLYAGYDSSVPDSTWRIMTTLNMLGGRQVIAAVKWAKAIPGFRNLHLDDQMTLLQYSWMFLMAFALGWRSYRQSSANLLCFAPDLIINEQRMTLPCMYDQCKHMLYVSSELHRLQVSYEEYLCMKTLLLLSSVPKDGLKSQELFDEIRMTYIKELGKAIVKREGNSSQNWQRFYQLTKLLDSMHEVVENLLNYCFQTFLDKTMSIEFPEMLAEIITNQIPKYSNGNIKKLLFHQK
Source text: as §1

## C[C@H]1C[C@@H](O)CN(c2ncc(Cl)c(Nc3ccc4c(c3)c3c(c(=O)n4C)OCC(F)(F)[C@H](C4CC4)N3)n2)C1 [12a CCT373566, (S)-10-((5-Chloro-2-((3R,5S)-3-hydroxy-5-methylpiperidin-1-yl)pyrimidin-4-yl)amino)-2-cyclopropyl-3,3-difluoro-7-methyl-1,2,3,4-tetrahydro-[1,4]oxazepino[2,3-c]quinolin-6(7H)-one]
[1]; female, Sprague-Dawley, pH 7.4
  microsomal CLint at 0.5 h, 1 µM: 3 µL/min/mg
[1]
  CLint (RLM): low clearance
[2]; OCI-Ly1 xenograft SCID mice
  adverse events: No visible adverse events were observed
[2]; 12, 16, 24 h
  tumor concentrations versus plasma concentrations: lower than plasma concentrations at all time points
[2]; 12, 16 and 24 h after dosing
  BCL6 levels in tumor: significantly decreased at all time points
[3]; OCI-Ly1, read-out: MSD degrader assay [OCI-LY1] Dmax individual replicates, single replicate values
  Dmax: 89.8%
[3]; OCI-Ly1, read-out: MSD degrader assay [OCI-Ly1] Dmax, mean maximal degradation of BCL6, OCI-Ly1 cells, 2 h
  Dmax: 91.5%
[3]; OCI-Ly1 MSD assay
  degradation of BCL6 (in words): potently degrading isomer
[3]; geometric mean, OCI-Ly1 cells, 2 h incubation
  MSD degrader assay [OCI-Ly1] DC50: sub-nanomolar
[3]; mean maximal degradation of BCL6, OCI-Ly1 cells, 2 h
  MSD degrader assay [OCI-Ly1] Dmax: > 90%
[3]; mean of replicates
  MSD degrader assay [OCI-LY1] pDC50 mean: 9.1465
[3]; read-out: Calculated free DC50 [OCI-Ly1], DC50 corrected with fu,media
  DC50: 88 pM
[3]; read-out: MSD degrader assay [OCI-LY1] DC50 individual replicates, single replicate values
  DC50: 1 nM and 0.9 nM (4×) and 1.5 nM and 0.5 nM (2×) and 0.8 nM and 1.2 nM and 0.3 nM and 0.6 nM (3×) and 0.4 nM (2×) and 1.3 nM
[3]; read-out: MSD degrader assay [OCI-Ly1] DC50, geometric mean, OCI-Ly1 cells, 2 h incubation
  DC50: 700 pM
[3]; single replicate values
  MSD degrader assay [OCI-LY1] Dmax individual replicates: 90.3% and 91.7% and 95.3% (2×) and 94.5% and 93.1% and 94.4% and 94.1% and 92.7% and 96.2% and 84.1% and 84.0% and 89.6% and 88.7% and 89.5% and 92.4%
VEGFR2; read-out: Max Response
  Emax: 15.8%
VEGFR2; read-out: RC50 (IC50)
  pIC50: < 5.00
INSR; read-out: Max Response
  Emax: 0%
INSR; read-out: RC50 (IC50)
  pIC50: < 5.00
ROCK1; read-out: Max Response
  Emax: 14.9%
ROCK1; read-out: RC50 (IC50)
  pIC50: < 5.00
LCK; read-out: Max Response
  Emax: 1.52%
LCK; read-out: RC50 (IC50)
  pIC50: < 5.00
GR; read-out: Max Response
  Emax: 0.05%
GR; read-out: RC50 (EC50)
  pEC50: < 5.00
